# Read-outs that look alike come from different tables or passages of the source.
# Experiments:
# [1] = Hygroscopic weight gain experiment (Chinese Pharmacopoeia 2020 hygroscopicity guideline); type: physicochemical; details: for Hygroscopic weight gain: 25° C.±1° C. and 80%±2% RH
# Protocol: Table 1 below is the definition and range of hygroscopicity for a drug after equilibration at 25° C.±1° C. and 80%±2% RH in Guidelines for Hygroscopicity Trials for Pharmaceuticals (Chinese Pharmacopoeia, 2020 Edition, Volume IV, page 485).
# The strong hygroscopicity of a drug will seriously affect the flowability of the drug and even affect the stability of the drug. Therefore, according to the present application, a hygroscopic weight gain experiment was conducted on different salt forms of compound 1 as per the method described in Guidelines for Hygroscopicity Trials for Pharmaceuticals (Chinese Pharmacopoeia, 2020 Edition, Volume IV).
# [2] = Solubility of different salt forms in water (HPLC of supernatant); details: for Solubility at 25° C. / Solubility at 37° C.: purified water, 24 h; for solubility at 24 h: water, thermodynamic from solid
# Protocol: The system was stirred in a water bath at 25° C. In addition, the same system was prepared by the same method and stirred at 37° C. After 24 h, the supernatant was taken for HPLC analysis.
# [3] = Interconversion between crystalline forms (slurry of two forms, DSC); type: physicochemical; details: room temperature, 3 days
# Protocol: Samples of two different crystalline forms were mixed and dissolved in a corresponding solvent of 5 mL, and the mixture was stirred at room temperature for 3 days and separated by centrifugation. The resulting solid was dried in vacuum at 40 ° C. The dried product was subjected to a DSC test to determine the composition of the crystalline form.
# [4] = DVS profile (moisture sorption) of crystalline forms; type: physicochemical
# [5] = Stability of crystalline form I and II (HPLC purity; XRPD and DSC crystalline form); type: physicochemical
# Excerpt: Samples were taken on day 0, day 10, and day 30 for XRPD and DSC detections to evaluate the physical stability and for HPLC purity detection to evaluate the chemical stability.
# [6] = as above; type: physicochemical; remark: listed apart in the source
# [7] = type: physicochemical
# [8] = in the human body; cited from earlier work
compound,measurement,setting,value
Cc1ccc(S(=O)(=O)O)cc1.[2H]C(C)(C)C(N)C(=O)OC1CCC2(C)C(CCC3C2CCC2(C)C(C(C)=O)CCC32)C1 (stereo not drawn),Hygroscopic weight gain,[1],0%
same,Solubility at 25° C.,[2],810 µg/mL
same,Solubility at 37° C.,[2],890 µg/mL
CC(=O)O [Acetate],Hygroscopic weight gain,[1],0.4%
C1=Cc2cccc(OC[C@H]3CNCCO3)c2C1.O=S(=O)(O)c1ccccc1 [Benzenesulfonate],Hygroscopic weight gain,[1],0.2%
"[2H]C(C)(C)[C@H](N)C(=O)O[C@@H]1CC[C@@]2(C)[C@@H](CC[C@@H]3[C@@H]2CC[C@]2(C)[C@@H](C(C)=O)CC[C@@H]32)C1 [Compound 1, L-valine-3-d, (3α,5α)-3-hydroxy-pregnan-20-one-3-yl ester]",solubility at 24 h,[2]; 25 °C,10 µg/mL
same,Solubility at 37° C.,[2],Not detected
Cl.[2H]C(C)(C)[C@H](N)C(=O)O[C@@H]1CC[C@@]2(C)[C@@H](CC[C@@H]3[C@@H]2CC[C@]2(C)[C@@H](C(C)=O)CC[C@@H]32)C1 [Crystalline form III],Final crystalline form,[3]; isopropyl acetate 5 ml,crystalline form I
Cl.[2H]C(C)(C)[C@H](N)C(=O)O[C@@H]1CC[C@@]2(C)[C@@H](CC[C@@H]3[C@@H]2CC[C@]2(C)[C@@H](C(C)=O)CC[C@@H]32)C1 [Crystalline form II],DVS weight gain,[4]; relative humidity 50%,about 4%
same,Final crystalline form,[3]; isopropyl acetate 5 ml,crystalline form I
same,"Purity, High humidity (RH 92.5%)",[5]; day 0,99.59%
same,"Purity, High temperature (60° C.)",[5]; day 0,99.59%
same,"Purity, Illumination (4500 ± 500 Lux)",[5]; day 0,99.59%
same,"Purity, High humidity (RH 92.5%)",[5]; day 10,99.65%
same,"Purity, High temperature (60° C.)",[5]; day 10,98.93%
same,"Purity, Illumination (4500 ± 500 Lux)",[5]; day 30,99.20%
same,"Purity, High humidity (RH 92.5%)",[6]; day 5,99.39%
same,"Purity, High temperature (60° C.)",[6]; day 5,99.28%
same,"Purity, Illumination (4500 ± 500 Lux)",[6]; day 5,99.57%
same,"Purity, Illumination (4500 ± 500 Lux)",[6]; day 10,99.68%
same,"Purity, High humidity (RH 92.5%)",[6]; day 30,99.37%
same,"Purity, High temperature (60° C.)",[6]; day 30,97.03%
Cl.[2H]C(C)(C)[C@H](N)C(=O)O[C@@H]1CC[C@@]2(C)[C@@H](CC[C@@H]3[C@@H]2CC[C@]2(C)[C@@H](C(C)=O)CC[C@@H]32)C1 [Crystalline form IV],Final crystalline form,[3]; n-heptane 5 ml,crystalline form IIL
Cl.[2H]C(C)(C)[C@H](N)C(=O)O[C@@H]1CC[C@@]2(C)[C@@H](CC[C@@H]3[C@@H]2CC[C@]2(C)[C@@H](C(C)=O)CC[C@@H]32)C1 [Crystalline form I],Hygroscopicity (summary statement),[1]; summary of the polymorph comparison,non-hygroscopic
same,DVS weight gain,[4]; relative humidity 90%,1.2%
same,"Purity, High humidity (RH 92.5%)",[5]; day 0,99.77%
same,"Purity, High temperature (60° C.)",[5]; day 0,99.77%
same,"Purity, Illumination (4500 ± 500 Lux)",[5]; day 0,99.77%
same,"Purity, High humidity (RH 92.5%)",[5]; day 10,99.82%
same,"Purity, High temperature (60° C.)",[5]; day 10,99.77%
same,"Purity, Illumination (4500 ± 500 Lux)",[5]; day 30,99.65%
same,"Purity, High humidity (RH 92.5%)",[6]; day 5,99.72%
same,"Purity, High temperature (60° C.)",[6]; day 5,99.78%
same,"Purity, Illumination (4500 ± 500 Lux)",[6]; day 5,99.78%
same,"Purity, Illumination (4500 ± 500 Lux)",[6]; day 10,99.82%
same,"Purity, High humidity (RH 92.5%)",[6]; day 30,99.78%
same,"Purity, High temperature (60° C.)",[6]; day 30,99.64%
Cl.[2H]C(C)(C)[C@H](N)C(=O)O[C@@H]1CC[C@@]2(C)[C@@H](CC[C@@H]3[C@@H]2CC[C@]2(C)[C@@H](C(C)=O)CC[C@@H]32)C1 [Hydrochloride],Hygroscopic weight gain,[1],0.2%
same,"HPLC purity, High humidity/RH 92.5%",[7]; day 0,100%
same,"HPLC purity, High temperature/60° C.",[7]; day 0,100%
same,"HPLC purity, Illumination/4500 ± 500 Lux",[7]; day 0,100%
same,"HPLC purity, High humidity/RH 92.5%",[7]; day 7,99.89%
same,"HPLC purity, High temperature/60° C.",[7]; day 7,99.89%
same,"HPLC purity, Illumination/4500 ± 500 Lux",[7]; day 7,99.89%
same,"HPLC purity, High humidity/RH 92.5%",[7]; day 14,99.89%
same,"HPLC purity, High temperature/60° C.",[7]; day 14,99.88%
same,"HPLC purity, Illumination/4500 ± 500 Lux",[7]; day 14,99.89%
same,solubility at 24 h,[2]; 25 °C,22700 µg/mL
same,solubility at 24 h,[2]; 37 °C,46400 µg/mL
O=C(O)CC(O)C(=O)O.[2H]C(C)(C)C(N)C(=O)OC1CCC2(C)C(CCC3C2CCC2(C)C(C(C)=O)CCC32)C1.[2H]C(C)(C)C(N)C(=O)OC1CCC2(C)C(CCC3C2CCC2(C)C(C(C)=O)CCC32)C1 [L-Malate],Hygroscopic weight gain,[1],4.0%
same,Solubility at 25° C.,[2],1400 µg/mL
same,Solubility at 37° C.,[2],2110 µg/mL
O=P(O)(O)O.[2H]C(C)(C)C(N)C(=O)OC1CCC2(C)C(CCC3C2CCC2(C)C(C(C)=O)CCC32)C1.[2H]C(C)(C)C(N)C(=O)OC1CCC2(C)C(CCC3C2CCC2(C)C(C(C)=O)CCC32)C1 (stereo not drawn) [Phosphate],Hygroscopic weight gain,[1],4.9%
"CC(=O)[C@H]1CC[C@H]2[C@@H]3CC[C@H]4C[C@H](O)CC[C@]4(C)[C@H]3CC[C@]12C [allopregnanolone, 3α-OH-5α-pregnan-20-one]",plasma half-life,[8],about 45 minutes
Maleate,Hygroscopic weight gain,[1],0%
same,Solubility at 25° C.,[2],730 µg/mL
same,Solubility at 37° C.,[2],1120 µg/mL

# — US20260274887A1, “SALT FORM AND POLYCRYSTALLINE FORM OF ALLOPREGNANOLONE DERIVATIVE, PREPARATION METHOD THEREFOR, AND USE THEREOF” (priority 2023, published 2026)
